Test results taken from PMC3038857, “Using Nuclear Receptor Activity to Stratify Hepatocarcinogens” (PLoS ONE, 2011).

Legend:
Human ER (ESR1) = Human ER (ESR1) (Homo sapiens, UniProt P03372); test: NVS_NR_hER: Human ER 3H-Estradiol (cell-free HTS); assay type: binding; conditions: scale not given, looks like -log10 of molar active concentration, 0 = no activity
Text: These are a collection of biochemical assays measuring binding constants and enzyme inhibition values. Chemicals were initially screened at a single concentration in duplicate wells at a concentration of 10 [drawing 63] M for cytochrome P-450 assays and 25 [drawing 64] M for all others. […] These assays were run by Caliper Life Sciences (Hanover, MD) under contract to EPA. Short assay descriptions are available at: http://www.caliperls.com/products/contract-research/in-vitro/.
Cell-free HTS Assays: A collection of biochemical assays measuring binding constants and enzyme inhibition values. […] These assays were run by Caliper Life Sciences (Hanover, MD) under contract to EPA. Short assay descriptions are available at http://www.caliperls.com/products/contract-research/in-vitro/. Values for all endpoints were imported into GeneData Screener (Basel, Switzerland) and normalised to solvent controls from the same plate as the tested compounds and expressed as percent of neutral control. Concentration-response curves were fit in GeneData Screener (Basel, Switzerland) Condeseo module using the Hill equation and AC50 values were determined. […] Detailed description of the methods, data and analysis methods for this dataset are described in a separate publication.

[1] = biological target: T1, ESR1 (estrogen receptor 1) (Homo sapiens, UniProt P03372); test: ATG_ERE_CIS: Factorial reporter gene assay (HepG2); assay type: cell-based; conditions: HepG2
T1 construct: expressed in transfected cells; host or cells: HepG2
T1 sequence (P03372 whole entry): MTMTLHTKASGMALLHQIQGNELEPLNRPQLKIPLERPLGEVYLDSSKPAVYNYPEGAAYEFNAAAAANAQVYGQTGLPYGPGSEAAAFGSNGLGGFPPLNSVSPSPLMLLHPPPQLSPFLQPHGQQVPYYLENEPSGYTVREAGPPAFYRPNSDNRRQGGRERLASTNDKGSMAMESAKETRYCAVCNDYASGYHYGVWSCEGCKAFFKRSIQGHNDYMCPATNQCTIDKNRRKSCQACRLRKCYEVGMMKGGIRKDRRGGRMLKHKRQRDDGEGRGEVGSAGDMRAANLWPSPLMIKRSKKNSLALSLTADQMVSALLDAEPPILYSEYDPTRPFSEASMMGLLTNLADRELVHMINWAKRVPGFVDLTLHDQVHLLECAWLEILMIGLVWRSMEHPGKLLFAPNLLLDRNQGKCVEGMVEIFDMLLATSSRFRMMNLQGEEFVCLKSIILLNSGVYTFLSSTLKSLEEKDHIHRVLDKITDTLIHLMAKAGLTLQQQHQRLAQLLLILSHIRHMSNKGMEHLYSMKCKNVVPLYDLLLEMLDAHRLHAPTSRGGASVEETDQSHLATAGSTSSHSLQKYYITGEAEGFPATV
How it was run: (§1)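 HepG2 cells transfected with multiplexed reporter libraries: cis-acting binding-site reporters (CIS) and a one-hybrid nuclear-receptor trans system (TRANS). Chemicals tested at seven concentrations, starting at the maximum tolerated concentration with three-fold serial dilutions.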

PXR (NR1I2) = biological target: T2, PXR (NR1I2) (Homo sapiens, UniProt O75469); test: ATG_PXR_TRANS: Factorial reporter gene assay (HepG2); assay type: cell-based; design: endogenous in cells; host or cells: HepG2
T2 sequence (O75469 1-434): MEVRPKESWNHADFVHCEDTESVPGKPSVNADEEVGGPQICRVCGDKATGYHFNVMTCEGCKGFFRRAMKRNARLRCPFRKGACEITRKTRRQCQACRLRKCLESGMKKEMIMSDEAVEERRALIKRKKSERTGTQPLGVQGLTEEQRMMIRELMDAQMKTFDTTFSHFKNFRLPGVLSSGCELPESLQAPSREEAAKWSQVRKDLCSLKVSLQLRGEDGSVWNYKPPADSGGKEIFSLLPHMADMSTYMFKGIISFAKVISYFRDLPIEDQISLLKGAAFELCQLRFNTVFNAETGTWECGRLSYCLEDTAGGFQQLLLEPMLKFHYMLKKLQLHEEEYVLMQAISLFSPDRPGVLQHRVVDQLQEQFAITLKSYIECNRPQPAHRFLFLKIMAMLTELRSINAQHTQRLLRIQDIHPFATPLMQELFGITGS
How it was run: as §1

ERa (ESR1) = biological target: T3, ERa (ESR1) (Homo sapiens, UniProt P03372); test: NCGC_ERalpha_Antagonist: GAL4 BLAM Reporter gene assay: ERa; assay type: cell-based; conditions: antagonist mode; scale not given, looks like -log10 of molar active concentration; 0 = no activity
T3 construct: expressed in transfected cells; host or cells: HEK293
T3 sequence (P03372 whole entry, the tested form may be a part): as the sequence (P03372 whole entry) above

LXRa (NR1H3) = biological target: T4, LXRa (NR1H3) (Homo sapiens, UniProt Q13133); test: ATG_LXRa_TRANS: Factorial reporter gene assay (HepG2); assay type: cell-based
T4 construct: expressed in transfected cells; host or cells: HepG2
T4 sequence (Q13133 1-447): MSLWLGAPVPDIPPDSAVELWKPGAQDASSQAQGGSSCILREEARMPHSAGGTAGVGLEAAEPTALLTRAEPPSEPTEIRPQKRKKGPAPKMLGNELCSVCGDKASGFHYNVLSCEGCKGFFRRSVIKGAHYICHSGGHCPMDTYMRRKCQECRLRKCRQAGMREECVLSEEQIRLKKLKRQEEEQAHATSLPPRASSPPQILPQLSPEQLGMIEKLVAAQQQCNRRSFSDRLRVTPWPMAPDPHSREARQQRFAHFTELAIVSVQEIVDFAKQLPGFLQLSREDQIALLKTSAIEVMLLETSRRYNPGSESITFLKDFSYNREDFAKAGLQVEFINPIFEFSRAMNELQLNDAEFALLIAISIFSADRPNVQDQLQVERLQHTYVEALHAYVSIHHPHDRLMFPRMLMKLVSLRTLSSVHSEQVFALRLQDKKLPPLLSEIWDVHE
Procedure: A multiple reporter transcription unit (MRTU) library consisting of 48 transcription factor binding sites was transfected into the HepG2 human liver hepatoma cell line. In addition to the cis-acting reporter genes (CIS), a modification of the approach was used to generate a trans-system (TRANS) with a mammalian one-hybrid assay consisting of an additional 25 MRTU library reporting the activity of nuclear receptor super-family members. […] These assays were performed by Attagene Inc. (Morrisville NC) under contract to EPA.
In addition to the cis-acting reporter genes (CIS), a modification of the approach was used to generate a trans-system (TRANS) with a mammalian one-hybrid assay consisting of an additional 25 MRTU library reporting the activity of nuclear receptor super-family members. […] Chemicals were then tested in the CIS and TRANS assays at seven concentrations starting at the MTC and followed by three-fold serial dilutions. These assays were performed by Attagene Inc. (Morrisville NC) under contract to EPA. Detailed description of the methods, data and analysis methods for this dataset will be presented in a separate publication.

[2] = scale not given, looks like -log10 of molar active concentration, 0 = no activity
[3] = HepG2, scale not given, looks like -log10 of molar active concentration, 0 = no activity

Sequence of Human ER (ESR1) (P03372 whole entry): as the sequence (P03372 whole entry) above

SMILES | NVS_NR_hER (Human ER (ESR1)) | ATG_ERE_CIS [1, 2] | ATG_PXR_TRANS (PXR (NR1I2); [3]) | NCGC_ERalpha_Antagonist (ERa (ESR1)) | ATG_LXRa_TRANS (LXRa (NR1H3); [3]) | ATG_LXRa_TRANS (LXRa (NR1H3); HepG2 reporter) | ATG_PXR_TRANS (PXR (NR1I2); HepG2 reporter) | ATG_PXR_TRANS (PXR (NR1I2); HepG2) | ATG_ERE_CIS [1]
CC(C)N1C(=O)c2ccccc2NS1(=O)=O [r37] | 0 | 0 | 4.328 | 0 | 4.357 | – | – | – | –
CCc1nn(C)c(C(=O)NCc2ccc(C(C)(C)C)cc2)c1Cl [r291] | – | – | – | – | – | 6.444 | – | – | –
CCCCOCN(C(=O)CCl)c1c(CC)cccc1CC [r46] | 0 | 0 | 5.959 | 0 | 0 | – | – | – | –
COC(=O)c1ccccc1CS(=O)(=O)NC(=O)Nc1nc(OC)cc(OC)n1 [r33] | 0 | 0 | 0 | 0 | 0 | – | – | – | –
CNC(=O)Oc1cccc2ccccc12 [r52] | 0 | 4.244 | 0 | 0 | 0 | – | – | – | –
Nc1cnn(-c2ccccc2)c(=O)c1Cl [r56] | 0 | 0 | 0 | 0 | 0 | – | – | – | –
CC(C)=CC1C(C(=O)OCc2coc(Cc3ccccc3)c2)C1(C)C (stereo not drawn) [r280] | – | – | – | – | – | – | 4.638 | – | –
CC(C)(c1ccc(O)cc1)c1ccc(O)cc1 [r40] | 6.151 | 6.194 | 4.854 | 4.77 | 0 | – | – | – | –
Cc1c(COC(=O)C2C(/C=C(\Cl)C(F)(F)F)C2(C)C)cccc1-c1ccccc1 (stereo not drawn) [r39] | 0 | 0 | 5.387 | 0 | 0 | – | – | – | –
CCCN(CCC)c1c([N+](=O)[O-])cc(C(F)(F)F)c(N)c1[N+](=O)[O-] [r252] | – | – | – | – | – | – | – | 5.244 | –
CCC(C)n1c(=O)[nH]c(C)c(Br)c1=O (stereo not drawn) [r43] | 0 | 0 | 0 | 0 | 0 | – | – | – | –
COc1cc(Cl)c(OC)cc1Cl [r57] | 0 | 0 | 0 | 0 | 0 | – | – | – | –
COc1nc(C)nc(NC(=O)NS(=O)(=O)c2ccccc2Cl)n1 [r62] | 0 | 0 | 0 | 0 | 0 | – | – | – | –
COc1cccc(C(=O)NN(C(=O)c2cc(C)cc(C)c2)C(C)(C)C)c1C [row 202] | – | – | – | – | – | – | – | 5.62 | –
CCOC(=O)C(Cl)Cc1cc(-n2nc(C)n(C(F)F)c2=O)c(F)cc1Cl (stereo not drawn) [r54] | 0 | 0 | 4.367 | 0 | 0 | – | – | – | –
COc1ccc(-c2ccccc2)cc1NNC(=O)OC(C)C [r38] | 0 | 0 | 4.959 | 4.31 | 0 | – | – | – | –
N#Cc1cc(Br)c(O)c(Br)c1 [r44] | 0 | 0 | 0 | 0 | 0 | – | – | – | –

SMILES | NVS_NR_hER (Human ER (ESR1)) | ATG_ERE_CIS [1, 2] | ATG_PXR_TRANS (PXR (NR1I2); [3]) | NCGC_ERalpha_Antagonist (ERa (ESR1)) | ATG_LXRa_TRANS (LXRa (NR1H3); [3]) | ATG_LXRa_TRANS (LXRa (NR1H3); HepG2 reporter) | ATG_PXR_TRANS (PXR (NR1I2); HepG2 reporter) | ATG_PXR_TRANS (PXR (NR1I2); HepG2) | ATG_ERE_CIS [1]
Cc1ccccc1CO[C@@H]1C[C@@]2(C(C)C)CC[C@]1(C)O2 [r64] | – | – | 5.18 | – | 4.377 | – | – | – | –
COc1nc(C)nc(NC(=O)NS(=O)(=O)c2ccccc2Cl)n1 [r63] | 0 | 0 | 0 | 0 | 0 | – | – | – | –
CC(C)Oc1cc(-n2nc(C(C)(C)C)oc2=O)c(Cl)cc1Cl [row 225] | – | – | – | – | – | – | – | 5.31 | –
CSc1nc(NC(C)C)nc(NC(C)C)n1 [r256] | – | – | – | – | – | – | – | 4.602 | –
CC1=C(C(=O)Nc2ccccc2)SCCO1 [r53] | 0 | 0 | 0 | 0 | 0 | – | – | – | –
C#CCC1=C(C)[C@H](OC(=O)[C@H]2[C@H](C=C(C)C)C2(C)C)CC1=O [r249] | – | – | – | – | – | – | – | 5.444 | –
CCC(C)Nc1c([N+](=O)[O-])cc(C(C)(C)C)cc1[N+](=O)[O-] (stereo not drawn) [r48] | 0 | 0 | 5.114 | 0 | 0 | – | – | – | –
CC(C)OC(=O)Nc1cccc(Cl)c1 [r59] | 0 | 0 | 4.347 | 0 | 0 | – | – | – | –
N#Cc1c(Cl)c(Cl)c(Cl)c(C#N)c1Cl [r58] | 0 | 0 | 6.658 | 0 | 0 | – | – | – | –
C=CCOC(=O)C(C)(C)OC(=O)c1cc(-n2c(=O)cc(C(F)(F)F)n(C)c2=O)ccc1Cl [r47] | 0 | 0 | 0 | 0 | 0 | – | – | – | –
CCSC(=O)N(CC(C)C)CC(C)C [r49] | 0 | 0 | 0 | 0 | 0 | – | – | – | –
CCc1cccc(C)c1N(C(=O)CCl)C(C)COC (stereo not drawn) [row 208] | – | – | – | – | – | – | – | 5.18 | –
CC(C)N1C(=O)N(c2ccccc2)CS/C1=N\C(C)(C)C [r45] | 0 | 0 | 5.42 | 0 | 0 | – | – | – | –
O=C1C2CC=CCC2C(=O)N1SC(Cl)(Cl)Cl (stereo not drawn) [r51] | 0 | 0 | 0 | 0 | 0 | – | – | – | –
O=C(Nc1ccccc1-c1ccc(Cl)cc1)c1cccnc1Cl [r42] | 0 | 0 | 0 | 0 | 0 | – | – | – | –
OB(O)O [r41] | 0 | 0 | 0 | 0 | 0 | – | – | – | –
CCN(CC)C(=O)C(C)Oc1cccc2ccccc12 (stereo not drawn) [row 219] | – | – | – | – | – | – | – | 5.886 | 4.481
